According to patent publication US5798365A, “Substituted quinoline derivatives, a process for their preparation, and their use” (Hoechst Aktiengesellschaft, priority 1994, dated 1998):
Converted amounts (≈) assume the structure as drawn. Read-outs that look alike come from different tables or passages of the source.

Experiments:
[1] = target: T1, HIV reverse transcriptase (Human immunodeficiency virus type 1 group M subtype B, UniProt P04585); assay: Inhibition of HIV reverse transcriptase, scintillation proximity assay (SPA); format: biochemical; details: RT-SPA, 60 min, 37° C., read-out: Reverse Transcriptase Asaay IC-50 (converted)
T1 construct: purchased HT-Biotechnology LTD, Cambridge, UK; host or cells: E. coli
Protocol: Investigation of the ability of the substances to inhibit the HIV reverse transcriptase
The activity of the reverse transcriptase (RT) was measured by means of a scintillation proximity assay (SPA).
The reagent kit for the RT-SPA was obtained from Amersham/Buchler (Braunschweig). The RT enzyme (originating from HIV and cloned in E. coli) was provided by HT-Biotechnology LTD, Cambridge, UK.
The test was carried out in accordance with the supplier's (Amersham) methods manual--with the following modifications:
bovine serum albumin was added to the assay buffer to a final concentration of 0.5 mg/ml.
The test was carried out in Eppendorf reaction tubes using a mixture volume of […].
The supplier's RT concentrate (5000 U/ml) was diluted in 20 mM tris-HCl buffer; pH 7.2; 30% glycerol to an activity of 15 U/ml.
The assay mixtures were incubated for 60 min (at 37° C.).
After the reaction had been stopped and "developed" using the bead suspension, […] of assay mixture was transferred into 4.5 ml of 10 mM tris-HCl buffer; pH 7.4; 0.15M NaCl
and the tritium activity was measured in a β counter.
In order to carry out a preliminary test for inhibitor activity, the substances were dissolved in DMSO (stock solution concentration=1 mg/ml) and tested at 10^-1, 10^-2, 10^-3, etc. dilutions in DMSO.
In order to determine the IC50 values, the stock solutions of inhibitor were further diluted in 50 mM tris-HCl buffer, pH 8, and tested at suitable concentrations.
The concentration giving rise to 50% inhibition of the enzyme was ascertained from the graphic depiction of RT activity versus log Cinh.

HIV = assay: Testing preparations against HIV in cell culture (infected human donor lymphocytes); format: cell-based; details: for MIC: Human immunodeficiency virus 1, 72 h, lowest concentration without giant cells; for IC50: Human immunodeficiency virus 1, Lymphocyte, 72 h
Protocol: Testing preparations against HIV in cell culture
Description of the method
The complete medium additionally contains 20% foetal calf serum and 40 IU/ml recombinant interleukin 2.
Lymphocytes which have been isolated from fresh donor blood by means of Ficoll® gradient centrifugation are cultured, at 37° C. for 36 h and under 5% CO2, in complete medium in the added presence of […] phytohemagglutinin (Wellcome). After the addition of 10% DMSO, the cells are frozen at a cell density of 5×10^6 and stored in liquid nitrogen. For the experiment, the cells are thawed, washed in RPMI medium and cultured for 3-4 days in complete medium.
The preparations for testing were dissolved in DMSO at a concentration of 16.7 mg/ml and diluted to 1 mg/ml in complete medium. 0.4 ml of medium was initially introduced in 24-well multiwell plates. After 0.1 ml of the dissolved preparation had been added to the upper row of the plate, a geometrical dilution series was produced by transferring 0.1 ml on each occasion. Preparation-free controls always contained 0.4 ml of complete medium containing 0.5% DMSO.
Lymphocyte cultures having a cell count of 5×10^5 cells/ml were infected by adding a 1/50 volume of the supernatant from lymphocyte cultures infected with HIV. The titer of these culture supernatants was determined, by end point dilution, to be 1-5×10^6 infectious units/ml. After incubating at 37° C. for 30 min, the infected lymphocytes were centrifuged off and taken up once again in the same volume of medium. 0.6 ml of this cell suspension was added to each of the wells in the test plate. The assay mixtures were incubated at 37° C. for 3 days.
The infected cell cultures were examined under the microscope for the presence of giant cells, which indicate that the virus is multiplying actively in the culture. The lowest preparation concentration at which no giant cells appeared was defined as the inhibitory concentration against HIV (MIC value). As a control, the presence of HIV antigen in the supernatants from the culture plates was determined using a test for HIV antigen in accordance with the manufacturer's (Organon) instructions.

[2] = HIV-infected lymphocytes, 3 days, 37° C.
[3] = HIV-infected lymphocytes, 3 days, 37° C., read-out: IC-50

Structure (SMILES) | IC50 ([1]; molar value in parentheses) [nM] | IC50 [1] [nM] | MIC (HIV; [2]) [µg/mL] | IC50 (HIV; [3]) [ng/mL] | IC50 (HIV; HIV-infected lymphocytes, 3 days, unit as printed for compound 66, read-out: IC-50) [ng/mL] | IC50 (HIV) [ng/mL]
COc1ccc2c(c1)C(=CC(C)C)C(C)(C)C(=S)N2 [Compound 61] | 62 | 61.7 | 0.02 (≈ 0.0726 µM) | ~4 (≈ 0.0145 µM) |  | 
COc1ccc2c(c1)C(=CCC(C)C)C(C)(C)C(=O)N2 [Compound 66] | 70 | 69.5 | < 0.1 |  | ~10 (≈ 0.0366 µM) | 
CC(C)CC=C1c2ccccc2NC(=O)C12CCCC2 [Compound 67] | 91 | 89.1 | < 0.1 | ~20 (≈ 0.0742 µM) |  | 
COc1ccc2c(c1)C(=CCC(C)C)C(C)(C)C(=S)N2 [Compound 69] | 18 | 17.3 | < 0.02 |  |  | ~1.8 (≈ 0.00622 µM)
CC(C)CC=C1c2ccccc2NC(=S)C12CCCC2 [Compound 70] | 21 | 21 | 0.02 (≈ 0.0701 µM) | ~3 (≈ 0.0105 µM) |  | 
CC/C=C1\c2cc(Cl)ccc2NC(=S)C1(C)C [Compound 71] | 5 | 3.76 | 0.0016 (≈ 0.00602 µM) |  |  | 
CCC/C=C1\c2cc(Cl)ccc2NC(=O)C1(C)C [Compound 73, E-4-n-butylene-6-chloro-3,4-dihydro-3,3-dimethylquinolin-2(1H)-one] | 30 | 30.3 | < 0.04 | 20 (≈ 0.0758 µM) |  | 
CCC/C=C1\c2cc(Cl)ccc2NC(=S)C1(C)C [Compound 75, E-4-n-butylene-6-chloro-3,4-dihydro-3,3-dimethylquinolin-2(1H)-thione] |  | < 3.57 | 0.004 (≈ 0.0143 µM) | ~1.8 (≈ 0.00643 µM) |  | 
COc1ccc2c(c1)C(=C1CCCC1)C(C)(C)C(=O)N2 [Compound 138] |  | 225 | > 0.2 | 30 (≈ 0.111 µM) |  | 
COc1ccc2c(c1)C(=C1CCCC1)C(C)(C)C(=S)N2 [Compound 140] |  | 17.4 | 0.2 (≈ 0.696 µM) | 6 (≈ 0.0209 µM) |  | 
CCOC(=O)/C=C1\c2cc(Cl)ccc2NC(=S)C1(C)C [Compound 142] |  | 123 | < 0.2 | 4 (≈ 0.0129 µM) |  | 
